Source: paper PMC3174152, “Pseudomonas aeruginosa 4-Amino-4-Deoxychorismate Lyase: Spatial Conservation of an Active Site Tyrosine and Classification of Two Types of Enzyme” (PLoS ONE, 2011)

Molecular target: T1, PaPabC (Pseudomonas aeruginosa, UniProt Q9HZN6)
T1 construct: gene pabC; full length (271 residues), N-terminal His6 tag with TEV site kept (not cleaved), modified pET15b, E. coli BL21(DE3) Gold; homodimer, about 50 kDa
T1 sequence (Q9HZN6 1-271): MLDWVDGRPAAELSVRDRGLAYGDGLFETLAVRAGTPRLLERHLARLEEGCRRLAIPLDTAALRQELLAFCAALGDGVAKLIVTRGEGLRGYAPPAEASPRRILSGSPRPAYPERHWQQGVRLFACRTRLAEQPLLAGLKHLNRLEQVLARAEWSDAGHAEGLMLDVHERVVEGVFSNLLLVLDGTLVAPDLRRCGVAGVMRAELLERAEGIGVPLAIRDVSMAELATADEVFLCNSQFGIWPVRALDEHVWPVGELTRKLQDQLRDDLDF
Experiment: X-ray crystal structure ([…] Å), omit map
Assay type: binding
Conditions: covalent, Schiff base with Lys140; Tyr92 of partner subunit contacts PLP O3; crystallised with 0.1 mM PLP and 10 mM PABA, pH 6.5

## Cc1ncc(COP(=O)(O)O)c(C=O)c1O [PLP]
  X-ray crystal structure (1.75 Å), omit map: The presence of the PLP cofactor covalently bound to Lys140 was confirmed
